From US20220306623A1, “PYRIDYL OR PYRIMIDYL MTOR KINASE INHIBITORS” (GLAXOSMITHKLINE INTELLECTUAL PROPERTY DEVELOPMENT LIMITED, priority 2019, published 2022)
Read-outs that look alike come from different tables or passages of the source.

Test system: type I collagen deposition in primary lung fibroblasts derived from human tissue
Test: High throughput type I collagen deposition (scar-in-a-jar) high content screening assay
Assay type: cell-based
Settings: Primary lung fibroblast, 72 h, human pulmonary fibroblasts, 384-well, TGF-β 1 ng/ml 72 h
Method: Highthroughput, cellular type I collagen deposition was measured by adapting a published method; scar-in-a-jar (Chen et al., 2009) to primary lung fibroblasts derived from human tissue and combining with high content analysis to permit fluorescent quantification of collagen deposited in the extracellular matrix (ECM). The human biological samples were sourced ethically and their research use was in accordance with the terms of the informed consents.
Test compounds were dissolved in 100% DMSO to give 10 mM (stocks) and further diluted to give half log dilutions to generate an 11 point concentration response curve. 1 ul was transferred to 384-well plates (Greiner Group, Kremsmunster, Austria, Catalogue No Greine 781280r).
Human pulmonary fibroblasts were maintained in DMEM media (Gibco, Catalogue No 21969) supplemented with 4 mM L-glutamine (Gibco Catalogue No 25030-024) and 10% heat inactivated FBS (Gibco, Catalogue No 10099-141) at 37° C. in 10% CO2. Cells were harvested and resuspended at 4×10^6 cells/ml in a T175 cell culture flask (BD Falcom, Catalogue No: 353112) containing 50 mL of culture media. After 4 days 37° C. in 10% CO2, cells were harvested and seeded at 4000 cells per well ([…]) into 384-well plates (BD Falcon, Catalogue No 353962Greiner) in assay media (0.4% heat inactivated FBS, 4 mM L-glutamine). Plates were sealed with breathable seals (Sigma, Catalogue No. BEM-1). Assay plates were incubated for 72 h at 37° C. in 10% CO2.
Assay media was supplemented with 112.5 mg/ml Ficoll 70 (Sigma, Catalogue No F2878), 75 mg/ml Ficoll 400 (Sigma, Catalogue No F4375) and 50 µg/ml ascorbic acid (Sigma, Catalogue No A8960). 30 μL assay media were added to 1 l compound ([…] compound concentration in 1% DMSO). Diluted compounds (10 μL) were transferred to plates containing cells and incubated for 3 h at 37° C. in 10% CO2. Transforming growth factor (TGF)-β (R&D systems, Catalogue No 100-B/CF) was reconstituted to give 10 µg/mL (stock) and further diluted in assay media containing Ficoll and ascorbic acid (1 in 3333). TGF-β was added to cell plates (1 ng/ml final) and cells incubated for 72 h at 37° C. in 10% CO2.
Media was aspirated from cells and 30 µL/well 100% ice-cold methanol added and incubated at RT for 5 min to fix cells. Methanol was aspirated and cells washed with PBS (3×). To block and permeabilise, cells were incubated with PBS containing 1% BSA and 0.1% Triton X 100 for 20 min, followed by PBS wash (3×). Cells were incubated with mouse anti human type I collagen monoclonal antibody (Sigma, Catalogue No C2456) diluted 1:1000 in PBS for 24 h at 4° C. Cells were washed with PBS containing 0.1% Tween-20 (3×) and incubated with secondary alexa fluor 488 goat-anti-mouse antibody (Invitrogen, Catalogue No A11001, 1 in 500 in PBS) and Hoechst 33342 (Sigma, Catalogue No H21492), 1 in 1000 in PBS) for 1 h at RT, prior to washing with PBS containing 0.1% Tween (×4).
Type I collagen immunoreactivity was detected using the INCell 2000 Analyzer (GE Healthcare, INcell 2000) set to excitation and emission wavelengths for DAPI and FITC with laser focus and exposure adjusted to appropriate levels. Images were imported and analysed using Columbus software (Perkin Elmer) and computational algorithms to quantify “total collagen area” and “cell count”.
Data analysis was performed by determining 0/inhibition values for test compounds relative to the minimum (media only) and maximum responses (TGF-βstimulation) with non-linear regression analysis to determine IC50 values for test compounds.

[1] = total collagen area, read-out: mean pIC50, high throughput type I collagen deposition (scar-in-a-jar) (converted)
[2] = selected compounds, read-out: Scar in a jar (mean pIC50 values when tested in the scar-in-a-jar assay) (converted)

SMILES | IC50 [1] [nM] | IC50 [2] [nM]
CC[C@H]1COCCN1c1cc(C2(S(C)(=O)=O)CCOCC2)nc(-c2ccc3[nH]c(C)cc3n2)n1 [Example 13, (3S)-3-ethyl-4-[6-(4-methanesulfonyloxan-4-yl)-2-{2-methyl-1H-pyrrolo[3,2-b]pyridin-5-yl}pyrimidin-4-yl]morpholine] | 20 to 3160 | 
CC[C@H]1COCC(=O)N1c1cc(CS(C)(=O)=O)nc(-c2ccc3[nH]c(C)cc3n2)n1 [Example 14, (5S)-5-ethyl-4-[6-(methanesulfonylmethyl)-2-{2-methyl-1H-pyrrolo[3,2-b]pyridin-5-yl}pyrimidin-4-yl]morpholin-3-one] | 20 to 3160 | 25.1
CC[C@H]1COCC(=O)N1c1cc(C2(S(C)(=O)=O)CCOCC2)cc(-c2ccc3[nH]c(CO)cc3n2)n1 [Example 26] | 20 to 3160 | 
CC[C@H]1COCCN1c1cc(CS(C)(=O)=O)nc(-c2ccc3[nH]c(CNC)cc3n2)n1 [Example 1, [(5-{4-[(3S)-3-ethylmorpholin-4-yl]-6-(methanesulfonylmethyl)pyrimidin-2-yl}-1H-pyrrolo[3,2-b]pyridin-2-yl)methyl](methyl)amine] | 20 to 3160 | 251
CC[C@H]1COCC(=O)N1c1cc(CS(C)(=O)=O)cc(-c2ccc3[nH]c(CO)cc3n2)n1 [Example 27] | 20 to 3160 | 
CC[C@H]1COCCN1c1cc(CS(=O)(=O)NC)nc(-c2ccc3[nH]c(CO)cc3n2)n1 [Example 10, 1-{6-[(3S)-3-ethylmorpholin-4-yl]-2-[2-(hydroxymethyl)-1H-pyrrolo[3,2-b]pyridin-5-yl]pyrimidin-4-yl}-N-methylmethanesulfonamide] | 20 to 3160 | 
CC[C@H]1COCCN1c1cc(CS(C)(=O)=O)nc(-c2ccc3[nH]c(CO)cc3n2)n1 [Example 2, (S)-(5-(4-(3-ethylmorpholino)-6-((methylsulfonyl)methyl)pyrimidin-2-yl)-1H-pyrrolo[3,2-b]pyridin-2-yl)methanol] | 20 to 3160 | 
CC[C@H]1COCC(=O)N1c1cc(CS(C)(=O)=O)cc(-c2ccc3[nH]c(C)cc3n2)n1 [Example 24, (S)-5-ethyl-4-(6-(2-methyl-1H-pyrrolo[3,2-b]pyridin-5-yl)-4-((methylsulfonyl)methyl)pyridin-2-yl)morpholin-3-one] | 20 to 3160 | 126
CC[C@H]1COCCN1c1cc(C2(S(C)(=O)=O)CCOCC2)nc(-c2ccc3[nH]c(CO)cc3n2)n1 [Example 4, (5-{4-[(3S)-3-ethylmorpholin-4-yl]-6-(4-methanesulfonyloxan-4-yl)pyrimidin-2-yl}-1H-pyrrolo[3,2-b]pyridin-2-yl)methanol] | 20 to 3160 | 
CC[C@H]1COCCN1c1cc(CS(=O)(=O)N(C)C)nc(-c2ccc3[nH]c(CNC)cc3n2)n1 [Example 16, 1-{6-[(3S)-3-ethylmorpholin-4-yl]-2-{2-[(methylamino)methyl]-1H-pyrrolo[3,2-b]pyridin-5-yl}pyrimidin-4-yl}-N,N-dimethylmethanesulfonamide] | 20 to 3160 | 100
CNCc1cc2nc(-c3cc(CS(C)(=O)=O)cc(N4CCO[C@H](C)[C@H]4C)n3)ccc2[nH]1 [Example 8, 1-(5-(6-((2R,3R)-2,3-dimethylmorpholino)-4-((methylsulfonyl)methyl)pyridin-2-yl)-1Hpyrrolo[3,2-b]pyridin-2-yl)-Nmethylmethanamine] | 20 to 3160 | 
CC[C@H]1COCCN1c1cc(CS(=O)(=O)N(C)C)nc(-c2ccc3[nH]c(CO)cc3n2)n1 [Example 9, 1-{6-[(3S)-3-ethylmorpholin-4-yl]-2-[2-(hydroxymethyl)-1H-pyrrolo[3,2-b]pyridin-5-yl]pyrimidin-4-yl}-N,N-dimethylmethanesulfonamide] | 20 to 3160 | 
CC[C@H]1COCCN1c1cc(CS(N)(=O)=O)nc(-c2ccc3[nH]c(CNC)cc3n2)n1 [Example 6, {6-[(3S)-3-ethylmorpholin-4-yl]-2-{2-[(methylamino)methyl]-1H-pyrrolo[3,2-b]pyridin-5-yl}pyrimidin-4-yl}methanesulfonamide] | 20 to 3160 | 
CC[C@H]1COCC(=O)N1c1cc(C2(S(C)(=O)=O)CCOCC2)cc(-c2ccc3[nH]c(C)cc3n2)n1 [Example 25, (S)-5-ethyl-4-(6-(2-methyl-1H-pyrrolo[3,2-b]pyridin-5-yl)-4-(4-(methylsulfonyl)tetrahydro-2H-pyran-4-yl)pyridin-2-yl)morpholin-3-one] | 20 to 3160 | 
CCc1cc2nc(-c3nc(CS(C)(=O)=O)cc(N4C(=O)COC[C@@H]4CC)n3)ccc2[nH]1 [Example 15, (5S)-5-ethyl-4-(2-{2-ethyl-1H-pyrrolo[3,2-b]pyridin-5-yl}-6-(methanesulfonylmethyl)pyrimidin-4-yl)morpholin-3-one] | 20 to 3160 | 158
CC[C@H]1COCCN1c1cc(CS(N)(=O)=O)cc(-c2ccc3[nH]c(C)cc3n2)n1 [Example 23, (S)-(2-(3-ethylmorpholino)-6-(2-methyl-1H-pyrrolo[3,2-b]pyridin-5-yl)pyridin-4-yl)methanesulfonamide] | 20 to 3160 | 
CC[C@H]1COCCN1c1cc(C2(S(C)(=O)=O)CCNCC2)cc(-c2ccc3[nH]c(C)cc3n2)n1 [Example 18, (S)-3-ethyl-4-(6-(2-methyl-1H-pyrrolo[3,2-b]pyridin-5-yl)-4-(4-(methylsulfonyl)piperidin-4-yl)pyridin-2-yl)morpholine] | 20 to 316 | 158
